Like-named read-outs stand apart in the source and are kept apart here. Blank lines part the entries; values can stand above or below the compound they belong to. Starred links: 1 amine or outer side, 2 acyl side, 3 side chain; linkers in the order of their positions; H or OH if unused. Non-standard residues stand in square brackets, D forms with d. Residues, ends and D or L forms follow the SMILES beside them. Groups on a side chain read outwards from the residue. *: point of attachment. C20 diacid = O=C(O)CCCCCCCCCCCCCCCCCCC(=O)*; γGlu = O=C(O)[C@H](CCC(=O)[*:2])N[*:1]; Hyp = O=C(O)[C@@H]1C[C@@H](O)CN1; NMeI = CC[C@H](C)[C@H](NC)C(=O)O; Nle = CCCC[C@H](N)C(=O)O; AEEA = NCCOCCOCC(=O)O; Aib = CC(C)(N)C(=O)O
Experiments:
hCRHR1 = target: T1, hCRHR1 (Homo sapiens, UniProt P34998); assay: HTRF cAMP assay, determination of hCRHR1 potency (peptide libraries 5 conc., purified peptides 11 conc.); assay type: cell-based
T1 sequence (P34998 24-415): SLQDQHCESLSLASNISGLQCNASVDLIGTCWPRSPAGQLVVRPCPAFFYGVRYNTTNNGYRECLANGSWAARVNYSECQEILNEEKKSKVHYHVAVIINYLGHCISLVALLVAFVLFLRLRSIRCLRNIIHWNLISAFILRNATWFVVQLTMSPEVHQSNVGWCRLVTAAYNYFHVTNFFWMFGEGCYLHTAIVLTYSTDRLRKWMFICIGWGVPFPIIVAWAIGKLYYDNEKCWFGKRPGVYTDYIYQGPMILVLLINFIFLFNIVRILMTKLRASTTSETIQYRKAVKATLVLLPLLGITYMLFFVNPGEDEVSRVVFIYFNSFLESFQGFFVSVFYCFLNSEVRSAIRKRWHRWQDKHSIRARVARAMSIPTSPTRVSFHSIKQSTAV
Method in brief: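 CHO-K1 cells stably expressing human CRHR1, thawed from frozen stocks just before use, were stimulated in suspension with agonist peptides. cAMP was measured by HTRF competitive immunoassay (cryptate anti-cAMP antibody vs d2-cAMP).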

hCRHR2 = target: T2, hCRHR2 (Homo sapiens, UniProt Q13324); assay: HTRF cAMP assay, determination of hCRHR2 potency (peptide libraries 5 conc., purified peptides 11 conc.); assay type: cell-based
T2 sequence (Q13324 1-411): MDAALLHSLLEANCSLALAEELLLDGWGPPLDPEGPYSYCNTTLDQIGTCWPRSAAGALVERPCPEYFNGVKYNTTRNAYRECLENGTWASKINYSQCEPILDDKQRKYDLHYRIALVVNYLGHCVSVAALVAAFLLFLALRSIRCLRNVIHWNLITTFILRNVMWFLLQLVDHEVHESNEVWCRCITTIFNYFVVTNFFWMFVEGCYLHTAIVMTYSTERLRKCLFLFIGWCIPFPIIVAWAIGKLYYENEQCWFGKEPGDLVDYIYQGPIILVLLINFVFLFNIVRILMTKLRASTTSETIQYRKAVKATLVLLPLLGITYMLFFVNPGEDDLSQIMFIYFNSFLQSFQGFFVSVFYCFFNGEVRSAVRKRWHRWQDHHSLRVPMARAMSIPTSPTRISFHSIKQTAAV
Method in brief: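 Potency was read as cAMP accumulation in a stable CHO-K1 line expressing human CRHR2, used in suspension right after thawing. Detection relied on energy transfer from antibody-bound cryptate to d2-cAMP.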

[1] = library peptides, matched molecular pairs L vs Nle in position X^38, read-out: Potency hCRHR1 pEC50 (converted)
[2] = library peptides, matched molecular pairs L vs Nle in position X^38, read-out: Potency hCRHR2 pEC50 (converted)

SMILES: CCCC[C@H](NC(=O)[C@@H](NC(=O)[C@H](CCC(=O)O)NC(=O)[C@H](C)NC(=O)[C@H](CC(N)=O)NC(=O)[C@@H](NC(=O)[C@H](CCCCNC(=O)COCCOCCNC(=O)COCCOCCNC(=O)CC[C@H](NC(=O)CC[C@H](NC(=O)CCCCCCCCCCCCCCCCCCC(=O)O)C(=O)O)C(=O)O)NC(=O)[C@H](C)NC(=O)[C@H](CCC(N)=O)NC(=O)[C@H](CCC(=O)O)NC(=O)[C@H](CCCNC(=N)N)NC(=O)[C@H](C)NC(=O)[C@@H](NC(=O)[C@H](CCCNC(=N)N)NC(=O)[C@H](C)NC(=O)[C@H](CCCNC(=N)N)NC(=O)[C@H](C)NC(=O)[C@H](CCC(N)=O)NC(=O)[C@H](CCC(=O)O)NC(=O)[C@H](CC(C)C)NC(=O)[C@H](CC(C)C)NC(=O)[C@@H](NC(=O)[C@H](CCC(N)=O)NC(=O)[C@H](CC(C)C)NC(=O)[C@H](CC(C)C)NC(=O)CNC(=O)[C@@H](NC(=O)[C@@H]1C[C@@H](O)CN1C(=O)[C@@H](NC(=O)[C@H](CC(=O)O)NC(=O)[C@H](CC(C)C)NC(=O)[C@H](CO)NC(=O)[C@H](CC(C)C)NC(=O)[C@@H](NC(=O)[C@@H](N)[C@@H](C)CC)C(C)C)C(C)C)[C@@H](C)CC)[C@@H](C)CC)C(C)C)[C@@H](C)O)[C@@H](C)CC)C(=O)N[C@@H](C)C(=O)N[C@@H](CCC(=O)O)C(=O)N[C@H](C(N)=O)C(C)C [compound 85] (H-IVLSLDV[Hyp]IGLLQILLEQARARVAREQAK([AEEA-AEEA-γGlu-γGlu-C20 diacid])TNAEI[Nle]AEV-NH2)
EC50 (hCRHR1; [1]): 2 nM
EC50 (hCRHR2; [2]): 0.251 nM

SMILES: CC[C@H](C)[C@H](N)C(=O)N[C@H](C(=O)N[C@@H](CC(C)C)C(=O)N[C@@H](CO)C(=O)N[C@@H](CC(C)C)C(=O)N[C@@H](CC(=O)O)C(=O)N[C@H](C(=O)N1CCC[C@H]1C(=O)N[C@H](C(=O)NCC(=O)N[C@@H](CC(C)C)C(=O)N[C@@H](CC(C)C)C(=O)N[C@@H](CCC(N)=O)C(=O)N[C@H](C(=O)N[C@@H](CC(C)C)C(=O)N[C@@H](CC(C)C)C(=O)N[C@@H](CCC(=O)O)C(=O)N[C@@H](CCC(N)=O)C(=O)N[C@@H](C)C(=O)N[C@@H](CCCNC(=N)N)C(=O)N[C@@H](C)C(=O)N[C@@H](CCCNC(=N)N)C(=O)N[C@@H](C)C(=O)N[C@@H](C)C(=O)N[C@@H](CCCNC(=N)N)C(=O)N[C@@H](CCC(=O)O)C(=O)N[C@@H](CCCNC(=N)N)C(=O)N[C@@H](C)C(=O)N[C@@H](CCCCNC(=O)COCCOCCNC(=O)COCCOCCNC(=O)CC[C@H](NC(=O)CC[C@H](NC(=O)CCCCCCCCCCCCCCCCCCC(=O)O)C(=O)O)C(=O)O)C(=O)N[C@H](C(=O)N[C@@H](CC(N)=O)C(=O)N[C@@H](C)C(=O)N[C@@H](CCC(=O)O)C(=O)N[C@H](C(=O)N[C@@H](CC(C)C)C(=O)N[C@@H](C)C(=O)N[C@@H](CCC(=O)O)C(=O)N[C@H](C(N)=O)C(C)C)[C@@H](C)CC)[C@@H](C)O)[C@@H](C)CC)[C@@H](C)CC)C(C)C)C(C)C [compound 66] (H-IVLSLDVPIGLLQILLEQARARAARERAK([AEEA-AEEA-γGlu-γGlu-C20 diacid])TNAEILAEV-NH2)
EC50 (hCRHR1): 50100 nM
EC50 (hCRHR2): 0.316 nM

Second part, the compound after the results:

EC50 (hCRHR1; Table 4, library peptides having X^38 = Nle, read-out: hCRHR1 pEC50 (converted)): 2510 nM
EC50 (hCRHR2; Table 4, library peptides having X^38 = Nle, read-out: hCRHR2 pEC50 (converted)): 0.0631 nM
SMILES: CCCC[C@H](NC(=O)[C@@H](NC(=O)[C@H](CCC(=O)O)NC(=O)C(C)(C)NC(=O)[C@H](CC(N)=O)NC(=O)[C@@H](NC(=O)[C@H](CCCCNC(=O)COCCOCCNC(=O)COCCOCCNC(=O)CC[C@H](NC(=O)CC[C@H](NC(=O)CCCCCCCCCCCCCCCCCCC(=O)O)C(=O)O)C(=O)O)NC(=O)[C@H](C)NC(=O)[C@H](CCC(N)=O)NC(=O)[C@H](CCC(=O)O)NC(=O)[C@H](CCCNC(=N)N)NC(=O)[C@H](C)NC(=O)[C@H](C)NC(=O)[C@H](CCCNC(=N)N)NC(=O)[C@H](C)NC(=O)[C@H](CCCNC(=N)N)NC(=O)[C@H](C)NC(=O)[C@H](CCC(N)=O)NC(=O)[C@@H](NC(=O)[C@H](CC(C)C)NC(=O)[C@H](CC(C)C)NC(=O)[C@@H](NC(=O)[C@H](CCC(N)=O)NC(=O)[C@H](CC(C)C)NC(=O)[C@H](CC(C)C)NC(=O)CNC(=O)[C@@H](NC(=O)[C@@H]1CCCN1C(=O)[C@@H](NC(=O)[C@H](CC(=O)O)NC(=O)[C@H](CC(C)C)NC(=O)[C@H](CO)NC(=O)[C@H](CC(C)C)NC(=O)[C@@H](NC(=O)[C@@H](NC)[C@@H](C)CC)C(C)C)C(C)C)[C@@H](C)CC)[C@@H](C)CC)C(C)C)[C@@H](C)O)[C@@H](C)CC)C(=O)N[C@@H](C)C(=O)N[C@@H](CCC(=O)O)C(=O)N[C@H](C(N)=O)C(C)C [compound 231] (H-[NMeI]VLSLDVPIGLLQILLVQARARAAREQAK([AEEA-AEEA-γGlu-γGlu-C20 diacid])TN[Aib]EI[Nle]AEV-NH2)

EC50 (hCRHR1; Table 3, matched molecular pairs X^38 L vs Nle, peptide library of Example 4, read-out: hCRHR1 pEC50 (converted)): 3980 nM
EC50 (hCRHR2; Table 3, matched molecular pairs X^38 L vs Nle, peptide library of Example 4, read-out: hCRHR2 pEC50 (converted)): 0.794 nM
SMILES: CC[C@H](C)[C@H](N)C(=O)N[C@H](C(=O)N[C@@H](CC(C)C)C(=O)N[C@@H](CO)C(=O)N[C@@H](CC(C)C)C(=O)N[C@@H](CC(=O)O)C(=O)N[C@H](C(=O)N1CCC[C@H]1C(=O)N[C@H](C(=O)NCC(=O)N[C@@H](CC(C)C)C(=O)N[C@@H](CC(C)C)C(=O)N[C@@H](CCC(N)=O)C(=O)N[C@H](C(=O)N[C@@H](CC(C)C)C(=O)N[C@@H](CC(C)C)C(=O)N[C@@H](CCC(=O)O)C(=O)N[C@@H](CCC(N)=O)C(=O)N[C@@H](C)C(=O)N[C@@H](CCCNC(=N)N)C(=O)N[C@@H](C)C(=O)N[C@@H](CCC(N)=O)C(=O)N[C@@H](C)C(=O)N[C@@H](CCC(N)=O)C(=O)N[C@@H](CCCNC(=N)N)C(=O)N[C@@H](CCC(=O)O)C(=O)N[C@@H](CCC(N)=O)C(=O)N[C@@H](C)C(=O)N[C@@H](CCCCNC(=O)COCCOCCNC(=O)COCCOCCNC(=O)CC[C@H](NC(=O)CC[C@H](NC(=O)CCCCCCCCCCCCCCCCCCC(=O)O)C(=O)O)C(=O)O)C(=O)N[C@H](C(=O)N[C@@H](CC(N)=O)C(=O)N[C@@H](C)C(=O)N[C@@H](CCC(=O)O)C(=O)N[C@H](C(=O)N[C@@H](CC(C)C)C(=O)N[C@@H](C)C(=O)N[C@@H](CCC(=O)O)C(=O)N[C@H](C(N)=O)C(C)C)[C@@H](C)CC)[C@@H](C)O)[C@@H](C)CC)[C@@H](C)CC)C(C)C)C(C)C [SEQ ID NO: 31] (H-IVLSLDVPIGLLQILLEQARAQAQREQAK([AEEA-AEEA-γGlu-γGlu-C20 diacid])TNAEILAEV-NH2)

EC50 (hCRHR1; [1]): 251 nM
EC50 (hCRHR2; [2]): 0.316 nM
SMILES: CC[C@H](C)[C@H](N)C(=O)N[C@H](C(=O)N[C@@H](CC(C)C)C(=O)N[C@@H](CO)C(=O)N[C@@H](CC(C)C)C(=O)N[C@@H](CC(=O)O)C(=O)N[C@H](C(=O)N1CCC[C@H]1C(=O)N[C@H](C(=O)NCC(=O)N[C@@H](CC(C)C)C(=O)N[C@@H](CC(C)C)C(=O)N[C@@H](CCC(N)=O)C(=O)N[C@H](C(=O)N[C@@H](CC(C)C)C(=O)N[C@@H](CC(C)C)C(=O)N[C@@H](CCC(=O)O)C(=O)N[C@@H](CCC(N)=O)C(=O)N[C@@H](C)C(=O)N[C@@H](CCCNC(=N)N)C(=O)N[C@@H](C)C(=O)N[C@@H](CCCNC(=N)N)C(=O)N[C@@H](CCC(N)=O)C(=O)N[C@@H](CC(C)C)C(=O)N[C@@H](CCCNC(=N)N)C(=O)N[C@@H](CCC(=O)O)C(=O)N[C@@H](CCC(N)=O)C(=O)N[C@@H](C)C(=O)N[C@@H](CCCCNC(=O)COCCOCCNC(=O)COCCOCCNC(=O)CC[C@H](NC(=O)CC[C@H](NC(=O)CCCCCCCCCCCCCCCCCCC(=O)O)C(=O)O)C(=O)O)C(=O)N[C@H](C(=O)N[C@@H](CC(N)=O)C(=O)N[C@@H](C)C(=O)N[C@@H](CCC(=O)O)C(=O)N[C@H](C(=O)N[C@@H](CC(C)C)C(=O)N[C@@H](C)C(=O)N[C@@H](CCC(=O)O)C(=O)N[C@H](C(N)=O)C(C)C)[C@@H](C)CC)[C@@H](C)O)[C@@H](C)CC)[C@@H](C)CC)C(C)C)C(C)C [compound 72] (H-IVLSLDVPIGLLQILLEQARARQLREQAK([AEEA-AEEA-γGlu-γGlu-C20 diacid])TNAEILAEV-NH2)
